Experimental data as given in US12415816B2, “Benzothiazole derivatives and 7-aza-benzothiazole derivatives as janus kinase 2 inhibitors and uses thereof” (Dana-Farber Cancer Institute, Inc., priority 2018, dated 2025).
pIC50: −log10 of the molar value.

Experiments:
SRC = SRC (Homo sapiens (Human), UniProt P12931); assay: KINOMEscan kinase selectivity profiling; format: binding; settings: read-out: Ambit KINOMEscan of compound I-5 at 10 μM (percent control %)
EPHB1 = EPHB1 (Homo sapiens (Human), UniProt P54762); assay: KINOMEscan kinase selectivity profiling; format: binding; settings: read-out: Ambit KINOMEscan of compound I-5 at 10 μM (percent control %)
PDGFRA = PDGFRA (Homo sapiens (Human), UniProt P16234); assay: KINOMEscan kinase selectivity profiling; format: binding; settings: read-out: Ambit KINOMEscan of compound I-5 at 10 μM (percent control %)
CDKL3 = CDKL3 (Homo sapiens (Human), UniProt Q8IVW4); assay: KINOMEscan kinase selectivity profiling; format: binding; settings: read-out: Ambit KINOMEscan of compound I-5 at 10 μM (percent control %)
ABL1(T315I) = ABL1(T315I) (Homo sapiens (Human), UniProt P00519, T315I); assay: KINOMEscan kinase selectivity profiling; format: binding; settings: read-out: Ambit KINOMEscan of compound I-5 at 10 μM (percent control %)
HPK1 = HPK1 (Homo sapiens (Human), UniProt Q92918); assay: KINOMEscan kinase selectivity profiling; format: binding; settings: read-out: Ambit KINOMEscan of compound I-5 at 10 μM (percent control %)
LYN = LYN (Homo sapiens (Human), UniProt P07948); assay: KINOMEscan kinase selectivity profiling; format: binding; settings: read-out: Ambit KINOMEscan of compound I-5 at 10 μM (percent control %)
PDGFRB = PDGFRB (Homo sapiens (Human), UniProt P09619); assay: KINOMEscan kinase selectivity profiling; format: binding; settings: read-out: Ambit KINOMEscan of compound I-5 at 10 μM (percent control %)
FGR = FGR (Homo sapiens (Human), UniProt P09769); assay: KINOMEscan kinase selectivity profiling; format: binding; settings: read-out: Ambit KINOMEscan of compound I-5 at 10 μM (percent control %)
KIT(L576P) = KIT(L576P) (Homo sapiens (Human), UniProt P10721, L576P); assay: KINOMEscan kinase selectivity profiling; format: binding; settings: read-out: Ambit KINOMEscan of compound I-5 at 10 μM (percent control %)
EPHB2 = EPHB2 (Homo sapiens (Human), UniProt P29323); assay: KINOMEscan kinase selectivity profiling; format: binding; settings: read-out: Ambit KINOMEscan of compound I-5 at 10 μM (percent control %)
FES = FES (Homo sapiens (Human), UniProt P07332); assay: KINOMEscan kinase selectivity profiling; format: binding; settings: read-out: Ambit KINOMEscan of compound I-5 at 10 μM (percent control %)
ABL1(Q252H) = ABL1(Q252H) (Homo sapiens (Human), UniProt P00519, Q252H); assay: KINOMEscan kinase selectivity profiling; format: binding; settings: read-out: Ambit KINOMEscan of compound I-5 at 10 μM (percent control %)
RET = RET (Homo sapiens (Human), UniProt P07949); assay: KINOMEscan kinase selectivity profiling; format: binding; settings: read-out: Ambit KINOMEscan of compound I-5 at 10 μM (percent control %)
CDC2L2 = CDC2L2 (Homo sapiens (Human), UniProt Q9UQ88); assay: KINOMEscan kinase selectivity profiling; format: binding; settings: read-out: Ambit KINOMEscan of compound I-5 at 10 μM (percent control %)
EPHA4 = EPHA4 (Homo sapiens (Human), UniProt P54764); assay: KINOMEscan kinase selectivity profiling; format: binding; settings: read-out: Ambit KINOMEscan of compound I-5 at 10 μM (percent control %)
TIE1 = TIE1 (Homo sapiens (Human), UniProt P35590); assay: KINOMEscan kinase selectivity profiling; format: binding; settings: read-out: Ambit KINOMEscan of compound I-5 at 10 μM (percent control %)
PFTAIRE2 = PFTAIRE2 (Homo sapiens (Human), UniProt Q96Q40); assay: KINOMEscan kinase selectivity profiling; format: binding; settings: read-out: Ambit KINOMEscan of compound I-5 at 10 μM (percent control %)
KIT = KIT (Homo sapiens (Human), UniProt P10721); assay: KINOMEscan kinase selectivity profiling; format: binding; settings: read-out: Ambit KINOMEscan of compound I-5 at 10 μM (percent control %)
KIT(V559D) = KIT(V559D) (Homo sapiens (Human), UniProt P10721, V559D); assay: KINOMEscan kinase selectivity profiling; format: binding; settings: read-out: Ambit KINOMEscan of compound I-5 at 10 μM (percent control %)
RET(M918T) = RET(M918T) (Homo sapiens (Human), UniProt P07949, M918T); assay: KINOMEscan kinase selectivity profiling; format: binding; settings: read-out: Ambit KINOMEscan of compound I-5 at 10 μM (percent control %)
RAF1 = RAF1 (Homo sapiens (Human), UniProt P04049); assay: KINOMEscan kinase selectivity profiling; format: binding; settings: read-out: Ambit KINOMEscan of compound I-5 at 10 μM (percent control %)
TRKB = TRKB (Homo sapiens (Human), UniProt Q16620); assay: KINOMEscan kinase selectivity profiling; format: binding; settings: read-out: Ambit KINOMEscan of compound I-5 at 10 μM (percent control %)
p38-delta = p38-delta (Homo sapiens (Human), UniProt O15264); assay: KINOMEscan kinase selectivity profiling; format: binding; settings: read-out: Ambit KINOMEscan of compound I-5 at 10 μM (percent control %)
EPHB4 = EPHB4 (Homo sapiens (Human), UniProt P54760); assay: KINOMEscan kinase selectivity profiling; format: binding; settings: read-out: Ambit KINOMEscan of compound I-5 at 10 μM (percent control %)
TAOK3 = TAOK3 (Homo sapiens (Human), UniProt Q9H2K8); assay: KINOMEscan kinase selectivity profiling; format: binding; settings: read-out: Ambit KINOMEscan of compound I-5 at 10 μM (percent control %)
RET(V804M) = RET(V804M) (Homo sapiens (Human), UniProt P07949, V804M); assay: KINOMEscan kinase selectivity profiling; format: binding; settings: read-out: Ambit KINOMEscan of compound I-5 at 10 μM (percent control %)
ABL2 = ABL2 (Homo sapiens (Human), UniProt P42684); assay: KINOMEscan kinase selectivity profiling; format: binding; settings: read-out: Ambit KINOMEscan of compound I-5 at 10 μM (percent control %)
CSF1R = CSF1R (Homo sapiens (Human), UniProt P07333); assay: KINOMEscan kinase selectivity profiling; format: binding; settings: read-out: Ambit KINOMEscan of compound I-5 at 10 μM (percent control %)
TRKC = TRKC (Homo sapiens (Human), UniProt Q16288); assay: KINOMEscan kinase selectivity profiling; format: binding; settings: read-out: Ambit KINOMEscan of compound I-5 at 10 μM (percent control %)
JAK2 = JAK2 (Homo sapiens (Human), UniProt O60674); assay: JAK2 Z-Lyte biochemical assay; settings: commercial JAK2 Z-Lyte assay from Invitrogen
Description: The JAK2 Z-Lyte biochemical assay was performed according to manufacturer's instructions (Life Technologies).

BRAF(V600E) = BRAF(V600E) (Homo sapiens (Human), UniProt P15056, V600E); assay: KINOMEscan kinase selectivity profiling; format: binding; settings: read-out: Ambit KINOMEscan of compound I-5 at 10 μM (percent control %)
RIPK1 = RIPK1 (Homo sapiens (Human), UniProt Q13546); assay: KINOMEscan kinase selectivity profiling; format: binding; settings: read-out: Ambit KINOMEscan of compound I-5 at 10 μM (percent control %)
MERTK = MERTK (Homo sapiens (Human), UniProt Q12866); assay: KINOMEscan kinase selectivity profiling; format: binding; settings: read-out: Ambit KINOMEscan of compound I-5 at 10 μM (percent control %)
CIT = CIT (Homo sapiens (Human), UniProt O14578); assay: KINOMEscan kinase selectivity profiling; format: binding; settings: read-out: Ambit KINOMEscan of compound I-5 at 10 μM (percent control %)
EPHA8 = EPHA8 (Homo sapiens (Human), UniProt P29322); assay: KINOMEscan kinase selectivity profiling; format: binding; settings: read-out: Ambit KINOMEscan of compound I-5 at 10 μM (percent control %)
FLT4 = FLT4 (Homo sapiens (Human), UniProt P35916); assay: KINOMEscan kinase selectivity profiling; format: binding; settings: read-out: Ambit KINOMEscan of compound I-5 at 10 μM (percent control %)
PFTK1 = PFTK1 (Homo sapiens (Human), UniProt O94921); assay: KINOMEscan kinase selectivity profiling; format: binding; settings: read-out: Ambit KINOMEscan of compound I-5 at 10 μM (percent control %)
TIE2 = TIE2 (Homo sapiens (Human), UniProt Q02763); assay: KINOMEscan kinase selectivity profiling; format: binding; settings: read-out: Ambit KINOMEscan of compound I-5 at 10 μM (percent control %)
TAK1 = TAK1 (Homo sapiens (Human), UniProt O43318); assay: KINOMEscan kinase selectivity profiling; format: binding; settings: read-out: Ambit KINOMEscan of compound I-5 at 10 μM (percent control %)
INSRR = INSRR (Homo sapiens (Human), UniProt P14616); assay: KINOMEscan kinase selectivity profiling; format: binding; settings: read-out: Ambit KINOMEscan of compound I-5 at 10 μM (percent control %)
ITK = ITK (Homo sapiens (Human), UniProt Q08881); assay: KINOMEscan kinase selectivity profiling; format: binding; settings: read-out: Ambit KINOMEscan of compound I-5 at 10 μM (percent control %)
EPHA6 = EPHA6 (Homo sapiens (Human), UniProt Q9UF33); assay: KINOMEscan kinase selectivity profiling; format: binding; settings: read-out: Ambit KINOMEscan of compound I-5 at 10 μM (percent control %)
RET(V804L) = RET(V804L) (Homo sapiens (Human), UniProt P07949, V804L); assay: KINOMEscan kinase selectivity profiling; format: binding; settings: read-out: Ambit KINOMEscan of compound I-5 at 10 μM (percent control %)
MAP4K2 = MAP4K2 (Homo sapiens (Human), UniProt Q12851); assay: KINOMEscan kinase selectivity profiling; format: binding; settings: read-out: Ambit KINOMEscan of compound I-5 at 10 μM (percent control %)

Sequence of PFTK1 (O94921 whole entry): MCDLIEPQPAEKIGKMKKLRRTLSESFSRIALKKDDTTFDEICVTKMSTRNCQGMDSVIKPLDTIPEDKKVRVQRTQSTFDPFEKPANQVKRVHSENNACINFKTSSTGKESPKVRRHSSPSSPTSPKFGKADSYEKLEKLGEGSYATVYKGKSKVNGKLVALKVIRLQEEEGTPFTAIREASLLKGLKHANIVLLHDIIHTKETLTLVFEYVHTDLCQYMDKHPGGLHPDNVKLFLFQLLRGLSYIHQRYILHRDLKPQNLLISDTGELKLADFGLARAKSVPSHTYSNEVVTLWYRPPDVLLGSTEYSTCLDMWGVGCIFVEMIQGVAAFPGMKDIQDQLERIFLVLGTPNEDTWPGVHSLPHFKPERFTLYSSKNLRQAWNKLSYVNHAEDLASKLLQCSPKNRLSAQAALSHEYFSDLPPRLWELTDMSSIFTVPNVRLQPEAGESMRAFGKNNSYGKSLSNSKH
Sequence of CIT (O14578 whole entry): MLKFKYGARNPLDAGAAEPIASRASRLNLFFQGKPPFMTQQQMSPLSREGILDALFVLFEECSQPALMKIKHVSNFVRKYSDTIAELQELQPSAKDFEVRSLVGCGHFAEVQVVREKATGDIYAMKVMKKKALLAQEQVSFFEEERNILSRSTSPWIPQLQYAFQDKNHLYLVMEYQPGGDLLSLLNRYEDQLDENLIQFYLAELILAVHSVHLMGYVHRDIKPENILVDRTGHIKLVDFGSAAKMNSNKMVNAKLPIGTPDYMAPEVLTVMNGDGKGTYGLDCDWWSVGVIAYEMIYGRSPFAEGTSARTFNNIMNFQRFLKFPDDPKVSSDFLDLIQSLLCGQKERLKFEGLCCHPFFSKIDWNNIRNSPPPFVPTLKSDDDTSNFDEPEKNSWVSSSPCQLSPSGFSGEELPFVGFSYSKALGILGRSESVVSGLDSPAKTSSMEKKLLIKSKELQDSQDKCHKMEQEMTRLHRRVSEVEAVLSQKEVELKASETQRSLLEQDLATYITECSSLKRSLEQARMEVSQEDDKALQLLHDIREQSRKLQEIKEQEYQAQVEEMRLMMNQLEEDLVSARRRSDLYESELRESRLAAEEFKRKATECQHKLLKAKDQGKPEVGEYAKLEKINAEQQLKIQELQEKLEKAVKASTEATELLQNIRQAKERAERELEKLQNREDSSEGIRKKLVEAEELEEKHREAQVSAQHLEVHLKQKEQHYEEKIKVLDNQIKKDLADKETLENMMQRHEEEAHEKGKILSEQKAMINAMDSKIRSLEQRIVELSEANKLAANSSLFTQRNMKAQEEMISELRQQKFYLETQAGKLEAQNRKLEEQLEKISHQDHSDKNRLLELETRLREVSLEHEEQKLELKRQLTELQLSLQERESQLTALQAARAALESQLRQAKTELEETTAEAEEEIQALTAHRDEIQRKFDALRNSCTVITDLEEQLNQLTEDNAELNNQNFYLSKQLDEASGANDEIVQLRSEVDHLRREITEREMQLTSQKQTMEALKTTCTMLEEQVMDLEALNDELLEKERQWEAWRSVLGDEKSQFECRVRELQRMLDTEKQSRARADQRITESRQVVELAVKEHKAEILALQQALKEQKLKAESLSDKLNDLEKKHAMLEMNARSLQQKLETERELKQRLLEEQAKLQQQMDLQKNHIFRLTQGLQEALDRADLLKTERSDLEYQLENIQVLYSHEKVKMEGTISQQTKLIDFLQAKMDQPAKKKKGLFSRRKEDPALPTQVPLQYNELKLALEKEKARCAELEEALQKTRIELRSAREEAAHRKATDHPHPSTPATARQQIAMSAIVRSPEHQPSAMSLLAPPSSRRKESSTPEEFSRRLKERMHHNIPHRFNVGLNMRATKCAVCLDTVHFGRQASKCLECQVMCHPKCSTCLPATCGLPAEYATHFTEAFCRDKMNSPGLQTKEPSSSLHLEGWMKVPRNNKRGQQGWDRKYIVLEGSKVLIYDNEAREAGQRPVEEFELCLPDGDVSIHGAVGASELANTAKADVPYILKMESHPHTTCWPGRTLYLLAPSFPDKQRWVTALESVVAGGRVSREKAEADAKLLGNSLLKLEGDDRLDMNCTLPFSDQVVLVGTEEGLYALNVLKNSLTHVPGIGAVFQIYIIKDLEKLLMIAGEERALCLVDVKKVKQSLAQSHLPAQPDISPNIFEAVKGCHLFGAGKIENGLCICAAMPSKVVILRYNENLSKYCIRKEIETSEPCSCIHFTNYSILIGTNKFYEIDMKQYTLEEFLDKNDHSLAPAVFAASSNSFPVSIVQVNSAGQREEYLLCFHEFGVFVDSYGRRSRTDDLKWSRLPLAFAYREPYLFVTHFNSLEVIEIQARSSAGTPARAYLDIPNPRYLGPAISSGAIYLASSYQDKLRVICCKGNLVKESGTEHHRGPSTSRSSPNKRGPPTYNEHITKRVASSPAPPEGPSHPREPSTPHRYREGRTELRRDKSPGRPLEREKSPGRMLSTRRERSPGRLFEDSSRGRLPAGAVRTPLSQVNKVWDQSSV
Sequence of RET (P07949 29-1114): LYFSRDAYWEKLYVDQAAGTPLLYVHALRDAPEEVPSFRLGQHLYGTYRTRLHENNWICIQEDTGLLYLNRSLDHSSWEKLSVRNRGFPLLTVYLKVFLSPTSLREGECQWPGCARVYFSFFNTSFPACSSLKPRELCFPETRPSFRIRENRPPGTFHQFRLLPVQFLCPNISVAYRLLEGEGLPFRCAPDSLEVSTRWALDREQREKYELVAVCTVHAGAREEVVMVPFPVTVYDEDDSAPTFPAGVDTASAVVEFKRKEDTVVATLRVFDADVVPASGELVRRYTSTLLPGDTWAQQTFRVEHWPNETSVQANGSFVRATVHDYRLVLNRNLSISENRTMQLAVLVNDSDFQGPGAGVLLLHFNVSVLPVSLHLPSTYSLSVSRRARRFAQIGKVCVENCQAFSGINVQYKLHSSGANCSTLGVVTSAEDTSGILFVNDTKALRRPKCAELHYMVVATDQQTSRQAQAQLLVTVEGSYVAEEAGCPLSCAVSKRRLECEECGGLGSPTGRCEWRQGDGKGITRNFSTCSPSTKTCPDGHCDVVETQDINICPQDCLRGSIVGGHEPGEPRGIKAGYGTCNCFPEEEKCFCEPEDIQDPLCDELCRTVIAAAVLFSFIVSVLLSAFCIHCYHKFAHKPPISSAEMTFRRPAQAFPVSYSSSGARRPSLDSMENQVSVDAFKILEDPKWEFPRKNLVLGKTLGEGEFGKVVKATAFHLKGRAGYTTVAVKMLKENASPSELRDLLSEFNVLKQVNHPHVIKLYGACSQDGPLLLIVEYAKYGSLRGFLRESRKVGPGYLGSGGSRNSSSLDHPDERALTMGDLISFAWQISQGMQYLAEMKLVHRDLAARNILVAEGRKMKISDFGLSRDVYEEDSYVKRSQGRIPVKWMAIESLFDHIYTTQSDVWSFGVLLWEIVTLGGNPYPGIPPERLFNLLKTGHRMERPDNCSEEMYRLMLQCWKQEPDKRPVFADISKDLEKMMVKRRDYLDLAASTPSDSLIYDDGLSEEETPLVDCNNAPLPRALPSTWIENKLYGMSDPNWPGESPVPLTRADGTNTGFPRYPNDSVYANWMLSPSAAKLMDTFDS
Sequence of JAK2 (O60674 whole entry): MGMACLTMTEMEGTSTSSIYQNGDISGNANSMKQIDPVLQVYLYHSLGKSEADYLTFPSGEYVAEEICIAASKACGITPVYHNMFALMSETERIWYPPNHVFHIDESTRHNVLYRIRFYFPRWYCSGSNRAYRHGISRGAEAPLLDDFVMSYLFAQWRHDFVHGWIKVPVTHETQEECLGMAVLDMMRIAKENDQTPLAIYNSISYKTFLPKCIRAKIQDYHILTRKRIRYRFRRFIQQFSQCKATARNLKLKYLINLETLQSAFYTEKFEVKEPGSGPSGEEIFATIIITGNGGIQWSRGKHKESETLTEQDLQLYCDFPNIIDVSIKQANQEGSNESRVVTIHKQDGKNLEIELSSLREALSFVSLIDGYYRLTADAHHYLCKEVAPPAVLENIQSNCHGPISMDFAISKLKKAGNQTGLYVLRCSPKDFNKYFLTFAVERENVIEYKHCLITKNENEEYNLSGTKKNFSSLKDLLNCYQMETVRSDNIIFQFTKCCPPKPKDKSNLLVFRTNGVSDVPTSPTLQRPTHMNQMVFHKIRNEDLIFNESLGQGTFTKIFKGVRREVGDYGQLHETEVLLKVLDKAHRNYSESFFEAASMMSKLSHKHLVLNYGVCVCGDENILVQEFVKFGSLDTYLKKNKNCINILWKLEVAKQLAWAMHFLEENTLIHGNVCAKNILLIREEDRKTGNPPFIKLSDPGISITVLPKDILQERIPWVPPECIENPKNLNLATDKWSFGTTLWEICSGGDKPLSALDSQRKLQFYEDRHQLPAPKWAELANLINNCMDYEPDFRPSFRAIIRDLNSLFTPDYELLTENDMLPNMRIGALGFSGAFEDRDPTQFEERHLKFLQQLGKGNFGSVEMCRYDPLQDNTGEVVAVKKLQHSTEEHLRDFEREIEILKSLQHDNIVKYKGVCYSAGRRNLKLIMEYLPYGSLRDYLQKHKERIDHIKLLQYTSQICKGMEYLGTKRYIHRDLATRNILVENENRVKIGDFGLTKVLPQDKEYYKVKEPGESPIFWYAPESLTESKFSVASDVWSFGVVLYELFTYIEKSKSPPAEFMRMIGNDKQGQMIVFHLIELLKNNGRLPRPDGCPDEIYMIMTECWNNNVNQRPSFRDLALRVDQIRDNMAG
Sequence of RET(M918T) (P07949 29-1114 M918T): as the sequence (P07949 29-1114) above, with M890T counted along it
Sequence of RET(V804L) (P07949 29-1114 V804L): as the sequence (P07949 29-1114) above, with V776L counted along it
Sequence of RET(V804M) (P07949 29-1114 V804M): as the sequence (P07949 29-1114) above, with V776M counted along it

CCN1CCN(Cc2cc(NC(=O)c3ccc(C)c(-c4ccc5nc(NC(=O)C6CC6)sc5n4)c3)cc(C(F)(F)F)c2)CC1 [Compound I-5]
remaining binding at 10 µM (SRC): 0%
remaining binding at 10 µM (EPHB1): 0%
remaining binding at 10 µM (PDGFRA): 0%
remaining binding at 10 µM (CDKL3): 0%
remaining binding at 10 µM (ABL1(T315I)): 0%
remaining binding at 10 µM (HPK1): 0%
remaining binding at 10 µM (LYN): 0%
remaining binding at 10 µM (PDGFRB): 0%
remaining binding at 10 µM (FGR): 0%
remaining binding at 10 µM (KIT(L576P)): 0%
remaining binding at 10 µM (EPHB2): 0%
remaining binding at 10 µM (FES): 0%
remaining binding at 10 µM (ABL1(Q252H)): 0%
remaining binding at 10 µM (RET): 0%
remaining binding at 10 µM (CDC2L2): 0%
remaining binding at 10 µM (EPHA4): 0%
remaining binding at 10 µM (TIE1): 0%
remaining binding at 10 µM (PFTAIRE2): 0%
remaining binding at 10 µM (KIT): 0%
remaining binding at 10 µM (KIT(V559D)): 0%
remaining binding at 10 µM (RET(M918T)): 0%
remaining binding at 10 µM (RAF1): 0%
remaining binding at 10 µM (TRKB): 0%
remaining binding at 10 µM (p38-delta): 0%
remaining binding at 10 µM (EPHB4): 0%
remaining binding at 10 µM (TAOK3): 0%
remaining binding at 10 µM (RET(V804M)): 0%
remaining binding at 10 µM (ABL2): 0%
remaining binding at 10 µM (CSF1R): 0%
remaining binding at 10 µM (TRKC): 0%
pIC50 (JAK2): 6.18
remaining binding at 10 µM (BRAF(V600E)): 0%
remaining binding at 10 µM (RIPK1): 0%
remaining binding at 10 µM (MERTK): 0%
remaining binding at 10 µM (CIT): 0%
remaining binding at 10 µM (EPHA8): 0%
remaining binding at 10 µM (FLT4): 0%
remaining binding at 10 µM (PFTK1): 0%
remaining binding at 10 µM (TIE2): 0%
remaining binding at 10 µM (TAK1): 0%
remaining binding at 10 µM (INSRR): 0%
remaining binding at 10 µM (ITK): 0%
remaining binding at 10 µM (EPHA6): 0%
remaining binding at 10 µM (RET(V804L)): 0%
remaining binding at 10 µM (MAP4K2): 0%
